Results from patent US6569891B1, “Antihypertensive compound from Caesalpinia brasiliensis” (Brigham Young University, priority 2002, dated 2003).

Columns and labels:
[1] = system: hypertensive Sprague-Dawley rats; assay: antihypertensive activity, sample in drinking water of hypertensive rats, tail cuff systolic blood pressure; assay type: in vivo; conditions: 100 μg/ml in drinking water, after 36 hours; for reduction in systolic blood pressure: tail cuff
Experimental: The crude extract and HPLC fractions prepared according to the procedure of Example 1 (with a preparative-scale (21.4×250 mm) column), were tested for antihypertensive activity by adding the sample to be tested at a concentration of 100 μg/ml to the drinking water of hypertensive Sprague-Dawley rats. After 36 hours, systolic blood pressures were measured with a Harvard tail cuff apparatus attached to a Beckman R511A recorder.

[2] = conversion of brazilin in hot water; assay type: physicochemical

Row | SMILES | reduction in systolic blood pressure [1] | systolic blood pressure after treatment ([1]; brought into the normal range) | stability in hot water [2]
1 | Oc1cc2c(cc1O)C1c3ccc(O)c(O)c3OCC1(O)C2 (single isomer, unassigned) [Peak B, haematoxylin] | ~12% |  | 
2 | Oc1cc2c(cc1O)C13c4ccc(O)c(O)c4OCC1(C2)OC1(O)CC=C2CC4(O)COc5c(ccc(O)c5O)C4=C2C13 (single isomer, unassigned) [peak A] | about 35% | 110-120 mm Hg | 
3 | Oc1ccc2c(c1)OC[C@]1(O)Cc3cc(O)c(O)cc3[C@H]21 [Brazilin, brazilin] |  |  | slowly converted to haematoxylin
